In patent publication US20240000872A1, “NOVEL BACTERIOPHAGE THAT LYSES ACINETOBACTER GENUS BACTERIA HAVING RESISTANCE TO ANTIBIOTICS” (priority 2020, published 2024):

System: Acinetobacter baumannii strains
Experiment: Antibiotic susceptibility test (CLSI disk diffusion test method, read per CLSI 2016)
Format: cell-based
Description: (§1) Strain identification was performed using a kit such as AT 32 GN system (bioMérieux, Marcy l'Etoile, France). […] In Table 2 below, S, I, and R are the results obtained by evaluating susceptibility to the antibacterial agents, in which ‘S’ means susceptible, ‘I’ means intermediate, and ‘R’ means resistant.
as §1, with “as ATB” for “as AT”, “system (bioMédrieux,” for “system (bioMérieux,”, “Table 6” for “Table 2”
as §1, with “as ATB” for “as AT”, “Table 10” for “Table 2”, “susceptible, T” for “susceptible, ‘I’”

CO/N=C(\C(=O)N[C@@H]1C(=O)N2C(C(=O)O)=C(COC(C)=O)CS[C@H]12)c1csc(N)n1 [Cefotaxime, cefotaxime]
antibiotic susceptibility class (host strain YMC14/01/C29): R | antibiotic susceptibility class (host strain YMC14/01/IP122): R | antibiotic susceptibility class (host strain YMC14/01/L8): R | antibiotic susceptibility class (host strain YMC14/01/P31): R | antibiotic susceptibility class (host strain YMC14/01/P117): R | antibiotic susceptibility class (host strain YMC14/01/P224): R | antibiotic susceptibility class (host strain YMC14/01/P727): R | antibiotic susceptibility class (host strain YMC14/01/P728): R | antibiotic susceptibility class (host strain YMC14/01/R130): R | antibiotic susceptibility class (host strain YMC14/01/R160): R | antibiotic susceptibility class (host strain YMC14/01/R198): R | antibiotic susceptibility class (host strain YMC14/01/R257): R | antibiotic susceptibility class (host strain YMC14/01/R270): R | antibiotic susceptibility class (host strain YMC14/01/R324): R | antibiotic susceptibility class (host strain YMC14/01/R443): R | antibiotic susceptibility class (host strain YMC14/01/R451): R | antibiotic susceptibility class (host strain YMC14/01/R560): R | antibiotic susceptibility class (host strain YMC14/01/R617): R | antibiotic susceptibility class (host strain YMC14/01/R671): R | antibiotic susceptibility class (host strain YMC14/01/R732): R | antibiotic susceptibility class (host strain YMC14/01/R767): R | antibiotic susceptibility class (host strain YMC14/01/R904): R | antibiotic susceptibility class (host strain YMC14/01/R905): R | antibiotic susceptibility class (host strain YMC14/01/R921): R | antibiotic susceptibility class (host strain YMC14/01/R941): R | antibiotic susceptibility class (host strain YMC14/01/R958): R | antibiotic susceptibility class (host strain YMC14/01/R1006): R | antibiotic susceptibility class (host strain YMC14/01/R1199): R | antibiotic susceptibility class (host strain YMC14/01/R1659): R | antibiotic susceptibility class (host strain YMC14/01/R1722): R | antibiotic susceptibility class (host strain YMC14/01/R1752): R | antibiotic susceptibility class (host strain YMC14/01/R2429): R | antibiotic susceptibility class (host strain YMC14/01/R2572): R | antibiotic susceptibility class (host strain YMC14/01/R2855): R | antibiotic susceptibility class (host strain YMC14/01/R2945): R | antibiotic susceptibility class (host strain YMC14/01/R3007): R | antibiotic susceptibility class (host strain YMC14/01/R3129): R | antibiotic susceptibility class (host strain YMC14/01/R3317): R | antibiotic susceptibility class (host strain YMC14/01/R3474): R | antibiotic susceptibility class (host strain YMC14/01/R3574): R | antibiotic susceptibility class (host strain YMC14/01/U313): R | antibiotic susceptibility class (host strain YMC14/01/U318): R | antibiotic susceptibility class (host strain YMC14/02/L18): R | antibiotic susceptibility class (host strain YMC14/02/P47): R | antibiotic susceptibility class (host strain YMC14/02/R1860): R | antibiotic susceptibility class (host strain YMC14/02/R2417): R | antibiotic susceptibility class (host strain YMC14/02/R2599): R | antibiotic susceptibility class (host strain YMC14/02/R2668): R | antibiotic susceptibility class (host strain YMC14/02/R2758): R | antibiotic susceptibility class (host strain YMC14/02/R2781): R | antibiotic susceptibility class (host strain YMC14/02/R3106): R | antibiotic susceptibility class (host strain YMC14/02/R3419): R | antibiotic susceptibility class (host strain YMC14/02/U1607): R | antibiotic susceptibility class (host strain YMC14/03/L9): R | antibiotic susceptibility class (host strain YMC14/03/P471): R | antibiotic susceptibility class (host strain YMC14/03/R122): R | antibiotic susceptibility class (host strain YMC14/03/R217): R | antibiotic susceptibility class (host strain YMC14/03/R380): R | antibiotic susceptibility class (host strain YMC14/03/R618): R | antibiotic susceptibility class (host strain YMC14/03/R2144): R | antibiotic susceptibility class (host strain YMC14/03/U4616): R | antibiotic susceptibility class (host strain YMC14/04/R1078): R | antibiotic susceptibility class (host strain YMC14/04/R1080): R | antibiotic susceptibility S/I/R (host strain YMC14/06/R2359): R | susceptibility category (S/I/R) (host strain YMC14/06/R2359): R | antibiotic susceptibility S/I/R (host strain YMC14/08/R1169): R | susceptibility category (S/I/R) (host strain YMC14/08/R1169): R | antibiotic susceptibility S/I/R (host strain YMC14/08/T90): R | susceptibility category (S/I/R) (host strain YMC14/08/T90): R | antibiotic susceptibility S/I/R (host strain YMC15/02/R436): R | susceptibility category (S/I/R) (host strain YMC15/02/R436): R | antibiotic susceptibility S/I/R (host strain YMC15/02/T28): R | susceptibility category (S/I/R) (host strain YMC15/02/T28): R | antibiotic susceptibility S/I/R (host strain YMC15/03/R1604): R | susceptibility category (S/I/R) (host strain YMC15/03/R1604): R | antibiotic susceptibility S/I/R (host strain YMC15/09/R1869): R | susceptibility category (S/I/R) (host strain YMC15/09/R1869): R | antibiotic susceptibility S/I/R (host strain YMC16/01/P11): R | susceptibility category (S/I/R) (host strain YMC16/01/P11): R | antibiotic susceptibility S/I/R (host strain YMC16/01/R123): R | susceptibility category (S/I/R) (host strain YMC16/01/R123): R | antibiotic susceptibility S/I/R (host strain YMC16/01/R198): R | susceptibility category (S/I/R) (host strain YMC16/01/R198): R | antibiotic susceptibility S/I/R (host strain YMC16/01/R353): R | susceptibility category (S/I/R) (host strain YMC16/01/R353): R | antibiotic susceptibility S/I/R (host strain YMC16/01/R380): R | susceptibility category (S/I/R) (host strain YMC16/01/R380): R | antibiotic susceptibility S/I/R (host strain YMC16/01/R397): R | susceptibility category (S/I/R) (host strain YMC16/01/R397): R | antibiotic susceptibility S/I/R (host strain YMC16/01/R405): R | susceptibility category (S/I/R) (host strain YMC16/01/R405): R | susceptibility category (S/I/R) (host strain YMC16/03/R4461): I | antibiotic susceptibility S/I/R (host strain YMC16/05/R2210): R | susceptibility category (S/I/R) (host strain YMC16/05/R2210): R | antibiotic susceptibility S/I/R (host strain YMC16/07/R2512): R | susceptibility category (S/I/R) (host strain YMC16/07/R2512): R | antibiotic susceptibility S/I/R (host strain YMC16/09/R2471): R | susceptibility category (S/I/R) (host strain YMC16/09/R2471): R | antibiotic susceptibility S/I/R (host strain YMC16/10/R2537): R | susceptibility category (S/I/R) (host strain YMC16/10/R2537): R | antibiotic susceptibility S/I/R (host strain YMC16/12/B11422): R | susceptibility category (S/I/R) (host strain YMC16/12/B11422): R | antibiotic susceptibility S/I/R (host strain YMC16/12/B11449): R | susceptibility category (S/I/R) (host strain YMC16/12/B11449): R | antibiotic susceptibility S/I/R (host strain YMC16/12/B13325): R | susceptibility category (S/I/R) (host strain YMC16/12/B13325): R | antibiotic susceptibility S/I/R (host strain YMC16/12/P503): R | susceptibility category (S/I/R) (host strain YMC16/12/P503): R | antibiotic susceptibility S/I/R (host strain YMC16/12/R4637): R | susceptibility category (S/I/R) (host strain YMC16/12/R4637): R | antibiotic susceptibility S/I/R (host strain YMC17/01/B8053): R | susceptibility category (S/I/R) (host strain YMC17/01/B8053): R | antibiotic susceptibility S/I/R (host strain YMC17/01/B10087): R | susceptibility category (S/I/R) (host strain YMC17/01/B10087): R | antibiotic susceptibility S/I/R (host strain YMC17/01/B12075): R | susceptibility category (S/I/R) (host strain YMC17/01/B12075): R | antibiotic susceptibility S/I/R (host strain YMC17/01/B13454): R | susceptibility category (S/I/R) (host strain YMC17/01/B13454): R | antibiotic susceptibility S/I/R (host strain YMC17/01/P518): R | susceptibility category (S/I/R) (host strain YMC17/01/P518): R | antibiotic susceptibility S/I/R (host strain YMC17/01/R2812): R | susceptibility category (S/I/R) (host strain YMC17/01/R2812): R | antibiotic susceptibility S/I/R (host strain YMC17/02/B14): R | susceptibility category (S/I/R) (host strain YMC17/02/B14): R | antibiotic susceptibility S/I/R (host strain YMC17/02/B87): R | susceptibility category (S/I/R) (host strain YMC17/02/B87): R | antibiotic susceptibility S/I/R (host strain YMC17/02/B721): R | susceptibility category (S/I/R) (host strain YMC17/02/B721): R | antibiotic susceptibility S/I/R (host strain YMC17/02/B4039): R | susceptibility category (S/I/R) (host strain YMC17/02/B4039): R | antibiotic susceptibility S/I/R (host strain YMC17/02/B4520): R | susceptibility category (S/I/R) (host strain YMC17/02/B4520): R | antibiotic susceptibility S/I/R (host strain YMC17/02/B4864): S | susceptibility category (S/I/R) (host strain YMC17/02/B4864): S | antibiotic susceptibility S/I/R (host strain YMC17/02/B8414): R | susceptibility category (S/I/R) (host strain YMC17/02/B8414): R | antibiotic susceptibility S/I/R (host strain YMC17/02/P523): R | susceptibility category (S/I/R) (host strain YMC17/02/P523): R | antibiotic susceptibility S/I/R (host strain YMC17/02/R541): R | susceptibility category (S/I/R) (host strain YMC17/02/R541): R | antibiotic susceptibility S/I/R (host strain YMC17/02/R2392): R | susceptibility category (S/I/R) (host strain YMC17/02/R2392): R | antibiotic susceptibility S/I/R (host strain YMC17/03/B4730): R | susceptibility category (S/I/R) (host strain YMC17/03/B4730): R | antibiotic susceptibility S/I/R (host strain YMC17/03/B5000): R | susceptibility category (S/I/R) (host strain YMC17/03/B5000): R | antibiotic susceptibility S/I/R (host strain YMC17/03/P971): R | susceptibility category (S/I/R) (host strain YMC17/03/P971): R | antibiotic susceptibility S/I/R (host strain YMC17/03/R348): R | susceptibility category (S/I/R) (host strain YMC17/03/R348): R | antibiotic susceptibility S/I/R (host strain YMC17/03/R585): R | susceptibility category (S/I/R) (host strain YMC17/03/R585): R | antibiotic susceptibility S/I/R (host strain YMC17/03/R1888): R | susceptibility category (S/I/R) (host strain YMC17/03/R1888): R | antibiotic susceptibility S/I/R (host strain YMC17/03/R3279): R | susceptibility category (S/I/R) (host strain YMC17/03/R3279): R | antibiotic susceptibility S/I/R (host strain YMC17/03/R4077): R | susceptibility category (S/I/R) (host strain YMC17/03/R4077): R | antibiotic susceptibility S/I/R (host strain YMC17/03/R4607): R | susceptibility category (S/I/R) (host strain YMC17/03/R4607): R | antibiotic susceptibility S/I/R (host strain YMC17/04/R488): R | susceptibility category (S/I/R) (host strain YMC17/04/R488): R | antibiotic susceptibility S/I/R (host strain YMC17/04/R640): R | susceptibility category (S/I/R) (host strain YMC17/04/R640): R | antibiotic susceptibility S/I/R (host strain YMC/17/05/R1095): R | susceptibility category (S/I/R) (host strain YMC/17/05/R1095): R
